Assay results from patent US11028075B2, “Therapeutic compounds and methods of use thereof” (GENENTECH, INC., priority 2018, dated 2021).
Structures can show the parent of a compound that is named as a salt.

Tests used:
hNav1.7 [1] = target: T1, hNav1.7 (Homo sapiens (Human), UniProt Q15858); test: Electrophysiological assay (EP), voltage clamp on Syncropatch 384PE, CHO cells stably expressing Nav1.7; type: cell-based; settings: holding potential −50 mV, 7.5 min compound incubation, read-out: EP_SP hNav1.7 EVO IC50
Summary of the method: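 Whole-cell automated patch clamp was run on CHO cells stably expressing human Nav1.7 cDNA, with internal solution CsCl/EGTA pH 7.2, external solution 80 mM NaCl pH 7.4, and 0.1% Pluronic F-127. From a −50 mV holding potential: −10 mV for 10 ms, −150 mV for 20 ms, then −10 mV for 10 ms, where current was measured. Inhibition was taken after 7.5 min compound incubation, with TTX added for full block.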
Target sequence in this assay (Q15858 other isoform, or with tags, fused parts or gaps): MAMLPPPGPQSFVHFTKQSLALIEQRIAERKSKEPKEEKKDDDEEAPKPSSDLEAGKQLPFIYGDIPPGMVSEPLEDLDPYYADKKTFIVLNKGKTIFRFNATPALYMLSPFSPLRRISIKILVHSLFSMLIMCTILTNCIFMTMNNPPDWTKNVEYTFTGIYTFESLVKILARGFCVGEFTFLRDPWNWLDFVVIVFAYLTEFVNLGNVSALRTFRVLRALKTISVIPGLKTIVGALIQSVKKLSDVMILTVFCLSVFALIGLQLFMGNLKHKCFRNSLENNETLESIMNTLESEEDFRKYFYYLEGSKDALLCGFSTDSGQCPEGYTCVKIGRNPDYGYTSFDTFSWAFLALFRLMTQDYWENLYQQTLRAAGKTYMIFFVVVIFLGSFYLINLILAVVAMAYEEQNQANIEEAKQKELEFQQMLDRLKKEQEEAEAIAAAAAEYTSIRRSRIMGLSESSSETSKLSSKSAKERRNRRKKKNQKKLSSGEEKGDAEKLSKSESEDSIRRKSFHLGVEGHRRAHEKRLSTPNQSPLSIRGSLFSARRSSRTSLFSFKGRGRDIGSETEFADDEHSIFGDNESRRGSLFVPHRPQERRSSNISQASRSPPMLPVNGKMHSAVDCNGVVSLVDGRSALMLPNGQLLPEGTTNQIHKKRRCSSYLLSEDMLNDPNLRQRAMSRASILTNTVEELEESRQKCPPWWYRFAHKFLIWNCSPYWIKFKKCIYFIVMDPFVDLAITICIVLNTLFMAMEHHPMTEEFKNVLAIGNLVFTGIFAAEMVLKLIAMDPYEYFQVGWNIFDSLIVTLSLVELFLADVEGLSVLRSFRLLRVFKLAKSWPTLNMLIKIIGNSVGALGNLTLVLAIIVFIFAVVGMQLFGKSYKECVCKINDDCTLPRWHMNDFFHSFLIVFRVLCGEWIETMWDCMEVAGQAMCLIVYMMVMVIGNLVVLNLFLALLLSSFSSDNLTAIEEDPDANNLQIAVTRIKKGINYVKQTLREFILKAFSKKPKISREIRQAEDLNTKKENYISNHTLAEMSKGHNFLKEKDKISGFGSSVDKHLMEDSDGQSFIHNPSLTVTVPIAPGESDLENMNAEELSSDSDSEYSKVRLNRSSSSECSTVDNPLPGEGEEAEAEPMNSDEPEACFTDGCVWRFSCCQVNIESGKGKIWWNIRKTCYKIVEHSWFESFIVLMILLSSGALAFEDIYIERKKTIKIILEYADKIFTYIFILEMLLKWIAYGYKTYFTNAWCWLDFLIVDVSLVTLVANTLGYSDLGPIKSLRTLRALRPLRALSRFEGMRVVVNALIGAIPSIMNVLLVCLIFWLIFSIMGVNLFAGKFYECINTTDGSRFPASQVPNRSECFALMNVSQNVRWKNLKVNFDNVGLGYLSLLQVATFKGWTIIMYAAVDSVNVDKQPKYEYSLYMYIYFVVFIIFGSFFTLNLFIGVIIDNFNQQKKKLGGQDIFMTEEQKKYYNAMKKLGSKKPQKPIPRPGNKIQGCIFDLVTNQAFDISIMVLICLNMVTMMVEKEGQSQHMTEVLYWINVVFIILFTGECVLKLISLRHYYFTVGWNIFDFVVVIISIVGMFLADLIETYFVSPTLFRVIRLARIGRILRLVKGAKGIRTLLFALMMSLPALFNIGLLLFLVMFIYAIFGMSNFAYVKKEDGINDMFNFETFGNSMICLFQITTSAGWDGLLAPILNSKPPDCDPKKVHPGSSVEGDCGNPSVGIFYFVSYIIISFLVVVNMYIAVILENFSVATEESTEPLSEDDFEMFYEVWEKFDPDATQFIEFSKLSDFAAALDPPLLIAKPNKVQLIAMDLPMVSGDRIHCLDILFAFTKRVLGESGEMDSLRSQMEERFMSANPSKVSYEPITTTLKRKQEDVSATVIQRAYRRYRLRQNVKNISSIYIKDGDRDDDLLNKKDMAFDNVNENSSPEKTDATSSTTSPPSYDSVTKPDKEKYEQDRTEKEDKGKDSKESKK

hNav1.7 [2] = target: T1, hNav1.7; test: Tritiated compound binding to membranes from cells heterologously expressing hNav1.7 and the β1 subunit (Nav1.7 LBA); settings: competitive binding vs [3H]compound, membranes with hNav1.7 and β1 subunit; read-out: Nav1.7 LBA EVO IC50
Summary of the method: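 Membranes from cells expressing hNav1.7 with β1 were incubated at room temperature with a tritiated competitive Nav1.7 inhibitor plus test compound in 100 mM NaCl, 20 mM Tris pH 7.4, 0.01% BSA; nonspecific binding was set with 1 μM unlabeled compound. Incubation was 18 h with […] radioligand, or 3 h with […]. Bound ligand was filtered and counted, and IC50 came from a 4-parameter fit.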
Target sequence in this assay (Q15858 whole entry, looked up): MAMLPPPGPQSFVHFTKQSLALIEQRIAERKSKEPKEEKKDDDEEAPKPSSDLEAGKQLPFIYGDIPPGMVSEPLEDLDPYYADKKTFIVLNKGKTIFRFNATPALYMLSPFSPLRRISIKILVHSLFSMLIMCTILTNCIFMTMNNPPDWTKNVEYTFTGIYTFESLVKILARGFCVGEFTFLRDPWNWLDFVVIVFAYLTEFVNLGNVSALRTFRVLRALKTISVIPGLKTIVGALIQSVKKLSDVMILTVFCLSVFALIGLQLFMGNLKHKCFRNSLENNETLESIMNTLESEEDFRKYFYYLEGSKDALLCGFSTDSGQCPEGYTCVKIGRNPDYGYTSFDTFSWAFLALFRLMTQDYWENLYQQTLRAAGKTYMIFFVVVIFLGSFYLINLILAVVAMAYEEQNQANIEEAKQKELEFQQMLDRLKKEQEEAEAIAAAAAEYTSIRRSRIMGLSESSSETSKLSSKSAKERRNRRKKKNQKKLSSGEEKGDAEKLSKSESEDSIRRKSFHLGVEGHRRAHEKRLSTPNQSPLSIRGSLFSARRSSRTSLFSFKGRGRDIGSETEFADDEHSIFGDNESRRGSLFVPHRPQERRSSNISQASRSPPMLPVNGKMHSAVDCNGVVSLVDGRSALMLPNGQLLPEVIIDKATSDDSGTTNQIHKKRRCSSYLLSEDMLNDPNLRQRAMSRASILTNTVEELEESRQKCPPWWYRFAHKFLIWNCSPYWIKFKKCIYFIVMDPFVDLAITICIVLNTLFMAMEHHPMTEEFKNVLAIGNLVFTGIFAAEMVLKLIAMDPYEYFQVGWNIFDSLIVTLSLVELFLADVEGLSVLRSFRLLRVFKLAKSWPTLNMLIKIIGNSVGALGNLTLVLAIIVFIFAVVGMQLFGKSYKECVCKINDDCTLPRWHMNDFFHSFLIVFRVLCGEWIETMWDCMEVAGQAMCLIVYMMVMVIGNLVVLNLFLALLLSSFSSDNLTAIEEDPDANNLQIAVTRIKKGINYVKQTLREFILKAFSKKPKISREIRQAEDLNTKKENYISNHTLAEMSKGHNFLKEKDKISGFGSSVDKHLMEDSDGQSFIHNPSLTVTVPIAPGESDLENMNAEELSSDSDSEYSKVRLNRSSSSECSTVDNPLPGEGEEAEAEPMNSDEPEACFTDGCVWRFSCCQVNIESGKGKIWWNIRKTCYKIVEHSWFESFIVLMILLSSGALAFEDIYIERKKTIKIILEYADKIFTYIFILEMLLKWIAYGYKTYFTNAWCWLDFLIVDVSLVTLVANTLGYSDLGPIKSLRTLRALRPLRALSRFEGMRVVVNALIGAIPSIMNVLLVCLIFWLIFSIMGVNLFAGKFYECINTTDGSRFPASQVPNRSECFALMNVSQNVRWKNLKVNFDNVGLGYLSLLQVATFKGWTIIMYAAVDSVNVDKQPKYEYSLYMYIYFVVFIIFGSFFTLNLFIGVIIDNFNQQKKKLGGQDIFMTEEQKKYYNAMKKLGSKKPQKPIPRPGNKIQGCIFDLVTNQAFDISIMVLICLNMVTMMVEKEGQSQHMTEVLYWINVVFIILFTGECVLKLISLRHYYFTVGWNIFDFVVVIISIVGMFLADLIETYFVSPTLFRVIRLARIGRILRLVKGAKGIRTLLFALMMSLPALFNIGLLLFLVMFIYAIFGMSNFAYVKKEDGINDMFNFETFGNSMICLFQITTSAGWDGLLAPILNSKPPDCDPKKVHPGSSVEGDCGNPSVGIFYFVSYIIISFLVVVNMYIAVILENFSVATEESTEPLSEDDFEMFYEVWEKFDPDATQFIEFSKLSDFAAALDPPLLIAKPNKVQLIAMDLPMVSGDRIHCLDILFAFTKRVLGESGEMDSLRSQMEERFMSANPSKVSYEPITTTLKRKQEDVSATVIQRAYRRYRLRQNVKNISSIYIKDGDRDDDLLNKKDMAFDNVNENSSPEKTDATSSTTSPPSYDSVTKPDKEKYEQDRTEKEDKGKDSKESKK
Target sequence in this assay (Q07699 whole entry partner, looked up): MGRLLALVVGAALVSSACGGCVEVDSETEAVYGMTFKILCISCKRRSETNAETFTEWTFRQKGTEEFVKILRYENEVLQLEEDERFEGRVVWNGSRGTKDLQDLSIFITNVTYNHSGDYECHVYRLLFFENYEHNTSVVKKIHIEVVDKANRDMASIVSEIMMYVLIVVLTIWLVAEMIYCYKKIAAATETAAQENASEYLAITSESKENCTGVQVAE

SMILES | IC50 (hNav1.7 [1]) [nM] | IC50 (hNav1.7 [2]) [nM]
O=S(=O)(Nc1ccncn1)c1cc(Cl)c(O[C@H]2CC[C@H](c3cccc(OC(F)(F)F)c3)C[C@@H]2N2CCCC2)cc1F [Example 64, 5-chloro-2-fluoro-N-(pyrimidin-4-yl)-4-(((1S,2S,4S)-2-(pyrrolidin-1-yl)-4-(3-(trifluoromethoxy)-phenyl)cyclohexyl)oxy)benzenesulfonamide formate] | 0.554 | 1.37
CN(C)[C@H]1C[C@@H](c2cc(Cl)ccc2Cl)CC[C@@H]1Oc1cc(F)c(S(=O)(=O)Nc2ccncn2)cc1Cl [Example 65, 5-chloro-4-(((1S,2S,4S)-4-(2,5-dichlorophenyl)-2-(dimethylamino)cyclohexyl)oxy)-2-fluoro-N-(pyrimidin-4-yl)benzenesulfonamide formate] | 1.03 | 5.41
CN(CCO)[C@H]1C[C@@H](c2cccc(C(F)(F)F)c2)CC[C@@H]1Oc1cc(F)c(S(=O)(=O)Nc2ccncn2)cc1Cl [Example 66, 5-chloro-2-fluoro-4-(((1S,2S,4S)-2-((2-hydroxyethyl)(methyl)amino)-4-(3-(trifluoromethyl)-phenyl)cyclohexyl)oxy)-N-(pyrimidin-4-yl)benzenesulfonamide formate] | 0.732 | 2.59
CN(C)[C@H]1C[C@@H](c2ccc(Cl)c(Cl)c2)CC[C@@H]1Oc1cc(F)c(S(=O)(=O)Nc2ccncn2)cc1Cl [Example 67, 5-chloro-4-(((1S,2S,4S)-4-(3,4-dichlorophenyl)-2-(dimethylamino)cyclohexyl)oxy)-2-fluoro-N-(pyrimidin-4-yl)benzenesulfonamide formate] | 0.325 | 3.83
CCN[C@H]1C[C@@H](c2cccc(C(F)(F)F)c2)CC[C@@H]1Oc1cc(F)c(S(=O)(=O)Nc2ccncn2)cc1Cl [Example 68, 5-chloro-4-(((1S,2S,4S)-2-(ethylamino)-4-(3-(trifluoromethyl)phenyl)cyclohexyl)oxy)-2-fluoro-N-(pyrimidin-4-yl)benzenesulfonamide formate] | 0.737 | 1.69
CNCCN(C)[C@H]1C[C@@H](c2cccc(C(F)(F)F)c2)CC[C@@H]1Oc1cc(F)c(S(=O)(=O)Nc2ccncn2)cc1Cl [Example 69, 5-chloro-2-fluoro-4-(((1S,2S,4S)-2-(methyl(2-(methylamino)ethyl)amino)-4-(3-(trifluoromethyl)phenyl)cyclohexyl)oxy)-N-(pyrimidin-4-yl)benzenesulfonamide formate] | 0.173 | 0.474
O=S(=O)(Nc1ccncn1)c1cc(F)c(N[C@H]2CC[C@H](c3cccc(C(F)(F)F)c3F)C[C@@H]2N2CCCC2)cc1F [Example 70, 2,5-difluoro-4-(((1S,2S,4S)-4-(2-fluoro-3-(trifluoromethyl)phenyl)-2-(pyrrolidin-1-yl)cyclohexyl)-amino)-N-(pyrimidin-4-yl)benzenesulfonamide hydrochloride] | 0.966 | 7.22
CN(C)[C@H]1CN(c2cc(C(F)(F)F)ccn2)CC[C@@H]1Nc1cc(F)c(S(=O)(=O)Nc2ccncn2)cc1Cl [Example 71, 5-Chloro-4-(((3S,4S)-3-(dimethylamino)-1-(4-(trifluoromethyl)pyridin-2-yl)piperidin-4-yl)amino)-2-fluoro-N-(pyrimidin-4-yl)benzenesulfonamide formate] | 7.04 | 169
CN(C)[C@H]1CN(c2cc(C(F)(F)F)ccn2)CC[C@@H]1Nc1ccc(S(=O)(=O)Nc2ccncn2)c(F)c1 [Example 72, 4-(((3S,4S)-3-(Dimethylamino)-1-(4-(trifluoromethyl)pyridin-2-yl)piperidin-4-yl)amino)-2-fluoro-N-(pyrimidin-4-yl)benzenesulfonamide formate] | 23.1 | 274
CN(C)[C@H]1CN(S(=O)(=O)c2cccc(C(F)(F)F)c2)CC[C@@H]1Nc1cc(F)c(S(=O)(=O)Nc2ccncn2)cc1Cl [Example 73, 5-Chloro-4-(((3S,4S)-3-(dimethylamino)-1-((3-(trifluoromethyl)phenyl)sulfonyl)piperidin-4-yl)amino)-2-fluoro-N-(pyrimidin-4-yl)benzenesulfonamide formate] | 3.34 | 82.3
